The values that follow are results of earlier work, collected in patent publication US20140234410A1, “COMBINATION PRODUCTS” (SIGMOID PHARMA LTD., priority 2004, published 2014).

Series [1] has as its system cytochrome P450.
Series [2] relates to tumour growth. As to conditions: simultaneous administration with R-verapamil.
For series [3] the following is noted: in vivo.
For series [4] the following is noted: adults.
The conditions of series [5]: in vivo. This is another data set of the same source.
Series [6] deals with thrombocythemia. As to conditions: co-administrated with a small dose of aspirin; people with thrombocythemia.

As to `CN/C(=N/CCSCc1nc[nH]c1C)NC#N` [cimetidine], the bioavailability of nimodipine entry in series [1] (effect of the co-administered drug) is recorded as “approximate doubling”.
As for `CN(CCOc1ccc(CC2SC(=O)NC2=O)cc1)c1ccccn1` (stereo not shown) [rosiglitazone, Rosiglitazone], the “solubility as a function of pH” value (physiological range) is recorded as “decreases with increasing pH”.
For `COCCOC(=O)C1=C(C)NC(C)=C(C(=O)OC(C)C)C1c1cccc([N+](=O)[O-])c1` (stereo not shown) [Nimodipine], the solubility in water result is “practically insoluble”.
Take `CC/C(=C(\c1ccccc1)c1ccc(OCCN(C)C)cc1)c1ccccc1` [tamoxifen, Tamoxifen]: in series [2], the tumour growth entry is given as “significantly decreases”.
In the case of `Cn1c(=O)c2[nH]cnc2n(C)c1=O` [Theophylline], in series [3], the “concentrations with anti-inflammatory and immunostimulatory effect” value was 5 to 10 mg/L. Besides, the biological half life in series [4] is listed as less than 6 hours.
For the compound `COc1ccc2c(c1)[C@]13CCCC[C@@H]1[C@H](C2)N(C)CC3` [Dextromethorphan], in series [5], the “adverse effects, share of people” value is “less than 1%”.
Turning to `NC(=O)NO` [Hydroxyurea], the solubility in water result is given as “freely soluble”. Besides, in series [6], the “preventing serious bleeding and other complications versus anagrelide hydrochloride” value is listed as “more effective”.
Take `CCCC(CCC)C(=O)O` [valproic acid]: the “plasma concentrations of nimodipine” value in series [1] (two drugs administered in combination) is recorded as “increased”.
